Data on 61 compounds can be found in the supplement of paper PMC3493320.

The structures appear in SMILES notation. pIC50: −log10 of the molar value. Bounds are passed on as bounds.

In the experiment the test system is NCI-H295R. Put plainly: IC50 (antiproliferative, ATP content). The following applies: 48 h. In short, it runs like this: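 In 1536-well plates, 1500 adrenocortical carcinoma cells per well were grown overnight in serum-free, ITS-supplemented DMEM before compounds were pin-transferred at 8 final concentrations (0.6 nM to 46 µM). After 48 h at 37 °C and 5% CO2, CellTiter-Glo luminescence was read following 20 min at room temperature and normalised to vehicle and positive-control wells. IC50 values came from logistic curve fits, with compounds lacking any concentration response listed as above the top dose.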
One may read the pIC50 as the negative decadic logarithm of the IC50, by convention in mol/L. Higher therefore signals a small IC50. `CCCCOCCOCCOCc1cc2c(cc1CCC)OCO2`: the pIC50 is under 4.34. Next, `CC(/C=C/C=C(\C)C(=O)O[C@@H]1O[C@H](CO[C@@H]2O[C@H](CO)[C@@H](O)[C@H](O)[C@H]2O)[C@@H](O)[C@H](O)[C@H]1O)=C\C=C\C=C(C)\C=C\C=C(/C)C(=O)O[C@@H]1O[C@H](CO[C@@H]2O[C@H](CO)[C@@H](O)[C@H](O)[C@H]2O)[C@@H](O)[C@H](O)[C@H]1O`: under 4.34; `COc1ccc2[nH]c(S(=O)Cc3ncc(C)c(OC)c3C)nc2n1` (stereo unspecified): under 4.34. The result for `CCOC(=O)Cc1ccc(-c2ccccc2)cc1` reads under 4.34; that for `N=C(N)N/N=C1/C=C/C(C=C1)=N\NC(N)=S`, under 4.34. The result for `NC(=O)OCCCc1ccccc1` reads under 4.34; that for `CN(C/C=C/c1ccccc1)Cc1cccc2ccccc12.Cl`, under 4.34. `O=C(/C=C/c1cccc(F)c1)NC1CC1` gave a negative logarithm of the IC50 (pIC50) of under 4.34.

Compound `O=C([O-])CCC/C=C\C[C@@H]1[C@@H](/C=C/[C@@H](O)COc2cccc(Cl)c2)[C@H](O)C[C@@H]1O.[Na+]` had a pIC50 of under 4.34. Turning to `COc1ccc(OC)c(C(O)CNC(=O)CN)c1.Cl` (stereo unspecified), the negative-log IC50 (pIC50) was under 4.34. The result for `OC1=CC(\C=C(C#N)/C#N)=CC(O)=C1O` reads under 4.34; that for `CO[C@@]1(NC(=O)C(C(=O)[O-])c2ccc(O)cc2)C(=O)N2C(C(=O)[O-])=C(CSc3nnnn3C)CO[C@@H]21.[Na+].[Na+]` (stereo partly specified), under 4.34; that for `CNC[C@H](O)[C@@H](O)[C@@H](O)[C@H](O)CO.Cc1c(Nc2ncccc2C(=O)O)cccc1C(F)(F)F`, under 4.34. The result for `CN[C@@H]1[C@H](O[C@H]2[C@H](O[C@H]3[C@H](O)[C@@H](O)[C@H](NC(=N)N)[C@@H](O)[C@@H]3NC(=N)N)O[C@@H](C)[C@]2(O)C=O)O[C@@H](CO)[C@H](O)[C@H]1O.CN[C@@H]1[C@H](O[C@H]2[C@H](O[C@H]3[C@H](O)[C@@H](O)[C@H](NC(=N)N)[C@@H](O)[C@@H]3NC(=N)N)O[C@@H](C)[C@]2(O)C=O)O[C@@H](CO)[C@H](O)[C@H]1O.O=S(=O)(O)O.O=S(=O)(O)O.O=S(=O)(O)O` reads under 4.34; that for `Cl.Cl.c1ccc(CNCCNCc2ccccc2)cc1`, under 4.34; that for `O=C1CC[C@@]2(O)[C@H]3Cc4ccc(O)c5c4[C@@]2(CCN3CC2CC2)[C@H]1O5`, under 4.34. Next, `O=C(C2)N([C@]([H])1[C@@]([O-])=O)[C@]2([H])O\C1=C/CO.[Li+]`: under 4.34; `CCOC(=O)[C@@H](N)CS.Cl`: under 4.34.

For the compound `C[C@]12CCC(=O)C=C1CC[C@@H]1[C@@H]2[C@@H](O)C[C@@]2(C)[C@H]1CC[C@]2(O)C(=O)COP(=O)([O-])[O-].[Na+].[Na+]`, the pIC50 was under 4.34. Next, `CCCCN1C[C@H](O)[C@@H](O)[C@H](O)[C@H]1CO`: under 4.34. The result for `CC(=O)c1ccc2c(c1)N(CCCN(C)C)c1ccccc1S2.O=C(O)/C=C/C(=O)O` reads under 4.34; that for `O=[C@](C)[C@@H]3[C@](CC2)(C)[C@](CC3)([H])[C@@]1([H])[C@@]2([H])[C@](CC[C@H](O)C4)(C)C4=CC1`, under 4.34. The result for `CC(=O)OCC(=O)[C@H]2CC[C@H]3[C@@H]4CC\C1=C\C(=O)CC[C@]1(C)[C@H]4CC[C@]23C` reads under 4.34; that for `C[C@@H](CN(C)C)CN1c2ccccc2Sc2ccccc21.C[C@@H](CN(C)C)CN1c2ccccc2Sc2ccccc21.O=C(O)[C@@H](O)[C@@H](O)C(=O)O`, under 4.34; that for `C=CC1=C(C(=O)O)N2C(=O)[C@@H](NC(=O)C(=NOCC(=O)O)c3csc(N)n3)[C@H]2SC1`, under 4.34. Compound `Nc1ncnc(Nc2ccccc2)n1` gave a pIC50 of under 4.34. The result for `CCc1cccc2c3c([nH]c12)C(CC)(CC(=O)O)OCC3` (stereo unspecified) reads under 4.34; that for `CCOc1ccc(NC(C)=O)cc1`, under 4.34; that for `O=C(O)CCCCC(=O)O`, under 4.34. The result for `CCOc1cc(-c2nccc3cc(OC)c(OC)cc23)cc(OCC)c1OCC` reads under 4.34. Next, `O=C(O)c1cc(=O)c2ccccc2o1`: under 4.34. Regarding `O=C3N1/C(=C(\CS[C@@H]1[C@@H]3NC(=O)Cn2cnnn2)CSc4nnc(C)s4)C(O)=O`, the pIC50 is under 4.34. Next, `CCCCCN(C)CCC(O)(P(=O)([O-])O)P(=O)(O)O.[Na+]`: under 4.34; `CC(C)(C)C(=O)OCOP(=O)(COCCn1cnc2c(N)ncnc21)OCOC(=O)C(C)(C)C`: under 4.34. Next, `CCOC(=O)C(C)(C)Oc1ccc(Cl)cc1`: under 4.34; `NC(Cc1ccccc1)C(=O)O` (stereo unspecified): under 4.34.

`CC(C)(C)C(=O)Oc1ccc(S(=O)(=O)Nc2ccccc2C(=O)NCC(=O)[O-])cc1.O.O.O.O.[Na+]` had a negative-log IC50 (pIC50) of under 4.34. For `ClC(Cl)Cl`, the pIC50 is under 4.34. The result for `C1CCN2C[C@@H]3C[C@@H](CN4CCCC[C@@H]34)[C@H]2C1` reads under 4.34; that for `CN1CCCN=C1COC(=O)C(O)(c1ccccc1)C1CCCCC1.Cl` (stereo unspecified), under 4.34; that for `CN(C)CCc1ccc(O)cc1`, under 4.34. Next, `CCC(C)[C@@H](N)C(=O)O` (stereo partly specified): under 4.34; `N21/C(=C(/SCCNC=N)C[C@@H]1[C@H](C2=O)[C@H](O)C)C(=O)O`: under 4.34; `Cc1ccccc1N1C(=O)c2cc(S(N)(=O)=O)c(Cl)cc2NC1C` (stereo unspecified): under 4.34. The result for `Clc1ccc2c(c1)C(N1CCNCC1)=Nc1ccccc1O2` reads under 4.34; that for `CC(=O)OCC(=O)[C@@]1(OC(C)=O)[C@@H](C)C[C@H]2[C@@H]3C[C@H](F)C4=CC(=O)C=C[C@]4(C)[C@@]3(F)[C@@H](O)C[C@@]21C`, under 4.34; that for `FC1(F)C(F)(F)C(F)(F)C2(F)C(F)(F)C(F)(F)C(F)(F)C(F)(F)C2(F)C1(F)F` (stereo unspecified), under 4.34. The compound `Cc1ccccc1-n1c(CF)nc2ccc(N)cc2c1=O` showed a pIC50 of under 4.34. Next, `Cc1ncc(C[n+]2csc(CCO)c2C)c(N)n1.Cl.[Cl-]`: under 4.34.

Take `NCc1ccccc1Sc1ccccc1CO`: the negative-log IC50 (pIC50) is under 4.34. The result for `NCCCCCC(=O)O` reads under 4.34; that for `NC(CNC([C@H](CC(C)C)N[C@]([C@@H]1CCCN1[C@]([C@H](CSSC[C@H](N)C(N[C@@H](CC3=CC=C(O)C=C3)C2=O)=O)NC([C@H](CC(N)=O)NC([C@@H](NC([C@](N2)([H])[C@@H](C)CC)=O)CCC(N)=O)=O)=O)=O)=O)=O)=O.O=C(C)O`, under 4.34. The result for `CCCCCCCCCCCCCCCCCC[N+](C)(C)CCC[Si](OC)(OC)OC.[Cl-]` reads under 4.34; that for `NC(=O)CCCCC1CCSS1` (stereo unspecified), under 4.34. The result for `CCCCCc1ccc(C)cc1O` reads under 4.34; that for `CC(C)CCCC(C)NC(C)C` (stereo unspecified), under 4.34; that for `CC(S)C(=O)NCC(=O)O` (stereo unspecified), under 4.34.

As to `Cc1c(NC(C)C)c(=O)n(-c2ccccc2)n1C`, the pIC50 is under 4.34. Next, `Cc1ncc([N+](=O)[O-])n1CC(C)O` (stereo unspecified): under 4.34; `CCc1ncnc2cc(OC)c(OC)cc12`: under 4.34.

Consider `O=C(C3=CC=CC=C3)O[C@@H]1C[C@H](CC2)N(C)[C@H]2[C@H]1[C@@](OC)=O.Cl`, for which the negative logarithm of the IC50 (pIC50) is under 4.34.
